{"source": "paper PMC7217877", "about": "“N-AS-triggered SPMs are direct regulators of microglia in a model of Alzheimer’s disease” (Nature Communications, 2020)", "test_system": "neuron", "assay": "SphK activity in primary cells", "type": "cell-based, C57BL/6 mice", "settings": "Ab 10mM, replicates", "procedure": "We confirmed S1P formation through SphK1 enzymatic activity measurements as previously described[11] using a UPLC (Ultra performance liquid chromatography) system (Waters). […] After pre-incubation, 1 mM ATP (Amresco, 0220) was added the mixture, and it was incubated at 37 °C for 1 h. The […] reactions were stopped by adding 53 μl of ethanol, and centrifuged at 15,493×g for 5 min. Thirty microliter of the supernatant was then transferred to a sampling glass vial and 5 μl was applied onto a UPLC system for analysis. S1P formation was followed as phosphorylation of (7-nitro-2-1,3-benzoxadiazol-4-yl)-d-erythro (NBD)-sphingosine (Avanti Polar Lipids) to NBD-S1P. Quantification was achieved by comparison with NBD-S1P (Avanti Polar Lipids) standards.\nTo confirm the generation and roles of N-AS in neurons, cells from E18 C57BL/6 mice were prepared as previously described. Cortices were dissected and then dissociated followed by incubation in papain (Worthington) at 37 °C for 15 min. […] The human microglia treated with Aβ 1–42 and/or zileuton was incubated with N-AS (2.5 μM, 2 h, Sigma-Aldrich, 01912), and were analyzed for the generation and roles of N-AS.", "note": "“And” between values parts separate entries of the source, which are not always exact repeats. Identical values can stand only once.", "data": [{"substance": "Ab: Aβ 1–42 (Invitrogen, 03112) used to induce an AD environment in cells", "values": [{"measurement": "SphK activity (Fig 3d)", "value": "1.391 and 1.001 and 1.873 and 1.345 and 1.437 and 1.609"}]}]}
